From patent US8450308B2 (Vitae Pharmaceuticals, Inc., priority 2008, dated 2013)
Like-named read-outs stand apart in the source and are kept apart here.

Molecular target: T1, truncated human beta-secretase (residues 1-458, His6-tagged at the C-terminus) (Homo sapiens, UniProt P56817)
T1 construct: truncated human beta-secretase (residues 1-458, His6-tagged at the C-terminus); His6 (C); made in house; host or cells: insect cells D. melanogaster S2 (baculovirus expression system (so in the source))
T1 sequence (P56817 22-458): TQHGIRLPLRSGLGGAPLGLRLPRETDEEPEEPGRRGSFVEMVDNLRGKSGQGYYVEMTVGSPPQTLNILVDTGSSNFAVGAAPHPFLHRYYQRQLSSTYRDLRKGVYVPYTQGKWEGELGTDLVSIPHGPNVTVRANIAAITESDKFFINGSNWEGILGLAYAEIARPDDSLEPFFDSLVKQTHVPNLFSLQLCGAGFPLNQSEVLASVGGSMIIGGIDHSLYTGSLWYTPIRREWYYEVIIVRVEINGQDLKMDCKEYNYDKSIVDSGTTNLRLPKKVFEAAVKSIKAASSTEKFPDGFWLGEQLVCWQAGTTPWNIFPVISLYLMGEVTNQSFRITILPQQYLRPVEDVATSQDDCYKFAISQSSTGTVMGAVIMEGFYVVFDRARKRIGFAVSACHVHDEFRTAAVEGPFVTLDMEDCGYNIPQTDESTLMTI
Assay: BACE fluorescence quench assay
Format: biochemical

[1] = in vitro enzyme activity, BACE fluorescence assay, pH 4.5, read-out: IC50

Structure (SMILES)	IC50 [1] [µM]	IC50 [µM]
CN1OC2(CC3(CCCOC3)Oc3ccc(Oc4ccccc4)cc32)N=C1N (stereo not drawn) [Compound 130]	10 to 50	–
Cc1ccc(C#N)cc1-c1ccc2c(c1)[C@]1(C[C@@]3(CCCOC3)O2)N=C(N)N(C)C1=O [Compound 413]	1 to 5	–
CN1C(=O)C2(CC3(CCCCC3)Oc3ccc(-c4ccncc4)cc32)N=C1N (stereo not drawn) [Compound 84]	10 to 50	–
CN1C(=O)C2(CC(c3ccc(Cl)cc3)Oc3ccc(-c4cccc(C#N)c4)cc32)N=C1N (stereo not drawn) [Compound 6]	0.1 to 0.5	–
CN1C(=O)C2(CC(c3ccccc3)Oc3ccc(-c4cncc(C#N)c4)cc32)N=C1N (stereo not drawn) [Compound 5, 5-(2′-amino-1′-methyl-5′-oxo-2-phenyl-1′,5′-dihydrospiro[chroman-4,4′-imidazole]-6-yl)nicotinonitrile]	–	0.1 to 0.5
CN1OC2(CC3(CCCCC3)Oc3ccc(-c4cccc(C#N)c4)cc32)NC1=N (stereo not drawn) [Compound 118, 3-(3″-Imino-2″-methylspiro[spiro(chroman-2,1″-cyclohexane)-4,5′-[1,2,4]oxadiazolidine]-6-yl)benzonitrile]	1 to 5	–
CN1C(=O)C2(CC(c3ccccc3)Oc3ccc(-c4cccc(NS(C)(=O)=O)c4)cc32)N=C1N (stereo not drawn) [Compound 52, N-(3-(2′-amino-1′-methyl-5′-oxo-2-phenyl-1′,5′-dihydrospiro[chroman-4,4′-imidazole]-6-yl)phenyl)methanesulfonamide]	–	5 to 10
CN1OC2(N=C1N)c1ccccc1OCC2CCc1cccc(C#N)c1 (stereo not drawn) [Compound 399]	1 to 5	–
CN1C(=O)[C@@]2(C[C@]3(CCCOC3)Oc3ccc(-c4cccc(Cl)n4)cc32)N=C1N [Compound 426]	1 to 5	–
CN1C(=O)C2(CC(c3ccccc3)Oc3ccc(-c4ccccc4C#N)cc32)N=C1N (stereo not drawn) [Compound 35, 2-(2′-amino-1′-methyl-5′-oxo-2-phenyl-1′,5′-dihydrospiro[chroman-4,4′-imidazole]-6-yl)benzonitrile]	–	1 to 5
CN1C(=O)C2(CC(c3ccccc3)Oc3ccc(-c4cccc(OC(F)(F)F)c4)cc32)N=C1N (stereo not drawn) [Compound 24, 2′-amino-1′-methyl-2-phenyl-6-(3-(trifluoromethoxy)phenyl)spiro[chroman-4,4′-imidazol]-5′(1′H)-one]	–	1 to 5
CN1OCC2(CC3(CCCOC3)Oc3ccc(-c4cccc(C#N)c4)cc32)N=C1N (stereo not drawn) [Compound 455, 3-(spiro[spiro[chroman-2,1′-(3-oxacyclohexane)]-4,5′-(3-amino-2-methyl-2,6-dihydro-[1,2,4]oxadiazine)]-6-yl)benzonitrile]	10 to 50	–
CN1C(=O)C2(CC(c3ccccc3)Oc3ccc(Br)cc32)N=C1N (stereo not drawn) [Compound 44, 2′-amino-6-bromo-1′-methyl-2-phenylspiro[chroman-4,4′-imidazol]-5′(1′H)-one]	–	10 to 50
CN1C(=O)[C@@]2(C[C@@]3(CCCOC3)Oc3ccc(-c4cccc(Cl)n4)cc32)N=C1N [Compound 447]	5 to 10	–
CN1C(=O)[C@@]2(C[C@@]3(CCCOC3)Oc3ccc(-c4ccc5cn[nH]c5c4)cc32)N=C1N [Compound 457]	10 to 50	–
CN1C(=O)[C@@]2(C[C@@]3(CCCOC3)Oc3ccc(-c4cccc(OC(F)(F)F)c4)cc32)N=C1N [Compound 357]	0.5 to 1	–
CN1C(=O)C2(CC3(CCCOC3)Oc3ccc(-c4ccsc4)cc32)N=C1N (stereo not drawn) [Compound 397]	1 to 5	–
CCCN1C(=O)C2(CC(c3ccccc3)Oc3ccc(Br)cc32)N=C1N (stereo not drawn) [Compound 57, 2′-amino-6-bromo-2-phenyl-1′-propylspiro[chroman-4,4′-imidazol]-5′(1′H)-one]	10 to 50	–
C=Cc1cccc(-c2ccc3c(c2)C2(CC(c4ccccc4)O3)N=C(N)N(C)C2=O)c1 (stereo not drawn) [Compound 22, 2′-amino-1′-methyl-2-phenyl-6-(3-vinylphenyl)spiro[chroman-4,4′-imidazol]-5′(1′H)-one]	–	1 to 5
CN1OC2(CC3(CCCOC3)Oc3ccc(C4CCCCC4)cc32)N=C1N (stereo not drawn) [Compound 122]	1 to 5	–
CC1CCCC2(C1)CC1(N=C(N)N(C)C1=O)c1cc(-c3cccc(C#N)c3)ccc1O2 (stereo not drawn) [Compound 82]	1 to 5	–
CN1C(=O)C2(CC(c3ccccc3)Oc3ccc(-c4cccs4)cc32)N=C1N (stereo not drawn) [Compound 36, 2′-amino-1′-methyl-2-phenyl-6-(thiophen-2-yl)spiro[chroman-4,4′-imidazol]-5′(1′H)-one]	–	1 to 5
CN1C(=O)C2(CC3(CCOCC3)Oc3ccc(-c4cccc(C#N)c4)cc32)N=C1N (stereo not drawn) [Compound 77]	0.1 to 0.5	–

Second part, led by results:

IC50 [1] [µM]	Structure (SMILES)	IC50 [µM]
0.1 to 0.5	CN1C(=O)C2(CC3(CCCOC3)Oc3ccc(-c4cc(F)ccc4F)cc32)N=C1N (stereo not drawn) [Compound 332]	–
1 to 5	CN1OC2(CC3(CCCOC3)Oc3ccc(-c4cccc(F)c4)cc32)N=C1N (stereo not drawn) [Compound 119]	–
1 to 5	CC1CCC2(CO1)CC1(N=C(N)N(C)O1)c1cc(-c3cccc(C#N)c3)ccc1O2 (stereo not drawn) [Compound 387, 3-(2″H-3″-amino-2″-methyl-spiro(spiro(chroman-2,3′-[2,4,5,6-tetrahydro-6-methyl-pyran])-4,5″-[1,2,4]oxadiazole)-6-yl)benzonitrile]	–
10 to 50	CN1C(=O)C2(C[C@H]([C@@H]3CCOC(C)(C)C3)Oc3ccc(-c4cccc(C#N)c4)cc32)N=C1N (stereo partly drawn) [Compound 453]	–
5 to 10	CN1OC2(CC(c3ccncc3)Oc3ccc(-c4cccc(C#N)c4)cc32)N=C1N (stereo not drawn) [Compound 105, 3-(3′-amino-2′-methyl-2-(pyridin-4-yl)-2′H-spiro[chroman-4,5′-[1,2,4]oxadiazole]-6-yl)benzonitrile]	–
0.1 to 0.5	CN1OC2(N=C1N)c1cc(-c3cccc(C#N)c3)ccc1OC1(CCCOC1)C2F (stereo not drawn) [Compound 109]	–
10 to 50	CN1OC2(CC(c3ccc(OC(F)(F)F)cc3)Oc3ccc(-c4cccc(C#N)c4)cc32)N=C1N (stereo not drawn) [Compound 107, 3-(3′-amino-2′-methyl-2-(4-(trifluoromethoxy)phenyl)-2′H-spiro[chroman-4,5′-[1,2,4]oxadiazole]-6-yl)benzonitrile]	–
1 to 5	CN1OC2(CC(c3ccccc3)Oc3ccc(-c4cccc(C#N)c4)cc32)N=C1N (stereo not drawn) [Compound 96, 3-(3′-amino-2′-methyl-2-phenyl-2′H-spiro[chroman-4,5′-[1,2,4]oxadiazole]-6-yl)benzonitrile]	–
5 to 10	CC(C)=CC(CCO)C1CC2(N=C(N)N(C)O2)c2cc(-c3cccc(F)c3)ccc2O1 (stereo not drawn) [Compound 436]	–
1 to 5	CN1C(=O)C2(CC3(CCCOC3)Oc3ccc(-c4cc(CO)ccc4F)cc32)N=C1N (stereo not drawn) [Compound 395]	–
1 to 5	COc1cccc(C2CC3(N=C(N)N(C)C3=O)c3cc(-c4cccc(C#N)c4)ccc3O2)c1 (stereo not drawn) [Compound 23, 3-(2′-amino-2-(3-methoxyphenyl)-1′-methyl-5′-oxo-1′,5′-dihydrospiro[chroman-4,4′-imidazole]-6-yl)benzonitrile]	–
1 to 5	CC(C)=CC(CCO)C1CC2(N=C(N)N(C)O2)c2cc(-c3cc(F)cc(Cl)c3)ccc2O1 (stereo not drawn) [Compound 404]	–
1 to 5	CN1C(=O)[C@@]2(C[C@]3(CCCOC3)Oc3ccc(-c4cc(CO)ccc4F)cc32)N=C1N [Compound 376]	–
0.5 to 1	CN1O[C@]2(C[C@H](CC3CCCO3)Oc3ccc(-c4cccc(C#N)c4)cc32)N=C1N (stereo in doubt) [Compound 366, 3-(3′-amino-2′-methyl-2-((tetrahydrofuran-2-yl)methyl)-2′H-spiro[chroman-4,5′-[1,2,4]oxadiazole]-6-yl)benzonitrile]	–
1 to 5	CC(C)=C[C@H](CCO)[C@@H]1C[C@@]2(N=C(N)N(C)O2)c2cc(-c3cc(F)cc(F)c3)ccc2O1 [Compound 419]	–
0.5 to 1	CN1OC2(C[C@H]([C@@H]3CCOC(C)(C)C3)Oc3ccc(-c4ccc(F)c(F)c4)cc32)N=C1N (stereo partly drawn) [Compound 362]	–

IC50 [1] [µM]	Structure (SMILES)	IC50 [µM]
1 to 5	CC1CC(C)CC2(C1)CC1(N=C(N)N(C)C1=O)c1cc(-c3cccc(C#N)c3)ccc1O2 (stereo not drawn) [Compound 83]	–
1 to 5	CC(C)=CC(CC(C)(C)O)C1CC2(N=C(N)N(C)O2)c2cc(-c3cccc(C#N)c3)ccc2O1 (stereo not drawn) [Compound 401]	–
0.5 to 1	CN1OC2(C[C@H](C3CCOC(C)(C)C3)Oc3ccc(-c4ccc5cn[nH]c5c4)cc32)N=C1N (stereo partly drawn) [Compound 369]	–
0.1 to 0.5	CN1OC2(CC(C3CCOC(C)(C)C3)Oc3ccc(-c4cccc(F)c4)cc32)N=C1N (stereo not drawn) [Compound 343]	–
0.5 to 1	CN1OC2(CC(C3CCOC(C)(C)C3)Oc3ccc(-c4ccc5cn[nH]c5c4)cc32)N=C1N (stereo not drawn) [Compound 361]	–
0.1 to 0.5	CN1C(=O)C2(CC(c3cccc(F)c3)Oc3ccc(-c4cccc(C#N)c4)cc32)N=C1N (stereo not drawn) [Compound 7]	–
1 to 5	CN1OC2(CC3(CCC(OCc4ccccc4)CC3)Oc3ccc(-c4cccc(C#N)c4)cc32)N=C1N (stereo not drawn) [Compound 375]	–
5 to 10	CN1C(=O)[C@@]2(C[C@@]3(CCCOC3)Oc3ccc(-c4cc(CO)ccc4F)cc32)N=C1N [Compound 435]	–
1 to 5	CN1OC2(CC3(CCC(Oc4ccccc4)CC3)Oc3ccc(-c4cccc(C#N)c4)cc32)N=C1N (stereo not drawn) [Compound 383]	–
1 to 5	CN1OC2(CC(C3CCCOC3)Oc3ccc(-c4cncnc4)cc32)N=C1N (stereo not drawn) [Compound 98]	–
1 to 5	CN1O[C@@]2(C[C@@H]([C@H]3CCCOC3)Oc3ccc(-c4cc(F)cc(F)c4)cc32)N=C1N [Compound 398]	–
0.5 to 1	CN1C(=O)C2(CC(c3ccc(F)cc3)Oc3ccc(-c4cccc(C#N)c4)cc32)N=C1N (stereo not drawn) [Compound 19, 3-(2′-amino-2-(4-fluorophenyl)-1′-methyl-5′-oxo-1′,5′-dihydrospiro[chroman-4,4′-imidazole]-6-yl)benzonitrile]	–
1 to 5	CC(C)=CC(CCO)C1CC2(N=C(N)N(C)O2)c2cc(-c3cccc(C#N)c3F)ccc2O1 (stereo not drawn) [Compound 430]	–
1 to 5	CN1C(=O)[C@@]2(CC(c3cccs3)Oc3ccc(-c4cccc(C#N)c4)cc32)N=C1N (stereo in doubt) [Compound 8b, 3-((2R,4S)-2′-Amino-1′-methyl-5′-oxo-2-(thiophen-2-yl)-1′,5′-dihydrospiro[chroman-4,4′-imidazole]-6-yl)-benzonitrile]	–
10 to 50	CN1OC2(CC3(CCc4ccccc4CC3)Oc3ccc(-c4cccc(C#N)c4)cc32)N=C1N (stereo not drawn) [Compound 451]	–
